Laboratory results reported in US20090203709A1, “Pharmaceutical Dosage Form For Oral Administration Of Tyrosine Kinase Inhibitor” (ABBOTT LABORATORIES, priority 2008, published 2009).
Entries after “also recorded” stand apart in the source; their conditions may differ. Where two headings read alike, the source gives them in different places.

What was measured:
[1] = Safety in study M05-756 (AML/MDS; adverse events, DLTs)
Experimental: Food was not allowed 2 h before or after dosing.
The following safety evaluations were performed during the studies: adverse event monitoring, vital signs, ECGs, physical examination and laboratory tests assessments.

[2] = system: non-hematologic malignancy; test: Efficacy in study M04-710; type: in vivo, human
Experimental: Study M04-710 and M05-756 are ongoing, open-label, multiple-dose escalation trials with ABT-869 administered daily for 21 consecutive days, with dose escalation scheduled in cohorts of 3 subjects. […] In both studies dosing was initiated at 10 mg QD, with subjects self-administering ABT-869 orally (admixed with approximately 60 mL of Ensure Plus or an approved alternative) at bedtime. Food was not allowed 2 h before or after dosing.
ECOG score of 0-2 in study of non-hematologic malignancies or 0-3 in AML/MDS study.

[3] = Study M04-710 pharmacokinetics, multiple-dose escalation, non-hematologic malignancies; type: in vivo, human; conditions: for AUC∞/D / Cmax/D / AUC0-24/D / Cmax / Tmax / AUC(0-t) / AUC(0-inf) / clearance / half-life: mean ± SD; for Cmax / Tmax / AUC(0-t) / AUC(0-inf) / clearance / half-life: human, plasma; for AUC(0-t): read-out: AUC0-24
Experimental: In study M04-710, blood samples for pharmacokinetic analysis were collected on Days 1 and 15 at the following times: 0 (pre-dose), 0.5, 1, 2, 3, 4, 6, 8, and 24 h (Day 1 only).
In study M05-756, blood samples for pharmacokinetic analysis were collected on Days 1 and 8 at the following times: 0 (pre-dose), 0.5, 1, 2, 3, 4, 6, 8, and 24 h (Day 1 only). Urine was collected for the 24 hour period following dosing on Day 13 through bedtime on Day 14 (non-hematologic malignancy study) and following dosing after Day 6 and through bedtime on Day 7 (AML/MDS study). Plasma and urine concentrations of ABT-869 were determined under the supervision of the Drug Analysis Department at Abbott using LCMS/MS. PK parameters were determined by noncompartmental analysis using WinNonlin Professional Version 5.0.1.

[4] = all cycles, N = 10, highest grade per subject
[5] = Study Day 1, 10 mg (~0.20 mg/kg)
[6] = Study Day 15, 10 mg (~0.20 mg/kg)
[7] = oral, 0.1 mg/kg, Study Day 15, 0.10 mg/kg
[8] = oral, 0.1 mg/kg, Study Day 1, 0.10 mg/kg
[9] = oral, 0.25 mg/kg, Study Day 1, 0.25 mg/kg
[10] = oral, 0.25 mg/kg, Study Day 15, 0.25 mg/kg
[11] = oral, 0.3 mg/kg, Study Day 15, 0.30 mg/kg
[12] = oral, 0.3 mg/kg, Study Day 1, 0.30 mg/kg
[13] = oral, 10 mg, Study Day 1, 10 mg (~0.20 mg/kg)
[14] = oral, 10 mg, Study Day 15, 10 mg (~0.20 mg/kg)
[15] = oral, Study Day 1, 10 mg (~0.20 mg/kg)

Cc1ccc(F)c(NC(=O)Nc2ccc(-c3cccc4[nH]nc(N)c34)cc2)c1 [ABT-869, N-[4-(3-amino-1H-indazol-4-yl)phenyl]-N′-(2-fluoro-5-methylphenyl)urea]
Dose limiting fatigue ([1]; 20 mg/body cohort): 3 patients
Alopecia, Overall ([1]; all cycles, N = 10): 2 (20.0) n (%)
Anorexia, Overall ([1]; all cycles, N = 10): 2 (20.0) n (%)
Asthenia, Overall ([1]; all cycles, N = 10): 3 (30.0) n (%)
Constipation, Overall ([1]; all cycles, N = 10): 2 (20.0) n (%)
Cough, Overall ([1]; all cycles, N = 10): 3 (30.0) n (%)
Diarrhoea, Overall ([1]; all cycles, N = 10): 4 (40.0) n (%)
Fatigue, Overall ([1]; all cycles, N = 10): 2 (20.0) n (%)
Febrile Neutropenia, Overall ([1]; all cycles, N = 10): 3 (30.0) n (%)
Haematuria, Overall ([1]; all cycles, N = 10): 2 (20.0) n (%)
Hypocalcaemia, Overall ([1]; all cycles, N = 10): 2 (20.0) n (%)
Hypokalaemia, Overall ([1]; all cycles, N = 10): 2 (20.0) n (%)
Myalgia, Overall ([1]; all cycles, N = 10): 2 (20.0) n (%)
Nausea, Overall ([1]; all cycles, N = 10): 2 (20.0) n (%)
Palmar-plantar erythrodysaesthesia syndrome, Overall ([1]; all cycles, N = 10): 2 (20.0) n (%)
Pyrexia, Overall ([1]; all cycles, N = 10): 3 (30.0) n (%)
Alopecia, Grade 1 [1, 4]: 0 n
Alopecia, Grade 2 [1, 4]: 2 n
Alopecia, Grade 3/4 [1, 4]: 0 n
Anorexia, Grade 1 [1, 4]: 2 n
Anorexia, Grade 2 [1, 4]: 0 n
Anorexia, Grade 3/4 [1, 4]: 0 n
Asthenia, Grade 1 [1, 4]: 1 n
Asthenia, Grade 2 [1, 4]: 0 n
Asthenia, Grade 3/4 [1, 4]: 2 n
Constipation, Grade 1 [1, 4]: 2 n
Constipation, Grade 2 [1, 4]: 0 n
Constipation, Grade 3/4 [1, 4]: 0 n
Cough, Grade 1 [1, 4]: 3 n
Cough, Grade 2 [1, 4]: 0 n
Cough, Grade 3/4 [1, 4]: 0 n
Diarrhoea, Grade 1 [1, 4]: 2 n
Diarrhoea, Grade 2 [1, 4]: 1 n
Diarrhoea, Grade 3/4 [1, 4]: 1 n
Fatigue, Grade 1 [1, 4]: 1 n
Fatigue, Grade 2 [1, 4]: 1 n
Fatigue, Grade 3/4 [1, 4]: 0 n
Febrile Neutropenia, Grade 1 [1, 4]: 0 n
Febrile Neutropenia, Grade 2 [1, 4]: 0 n
Febrile Neutropenia, Grade 3/4 [1, 4]: 3 n
Haematuria, Grade 1 [1, 4]: 1 n
Haematuria, Grade 2 [1, 4]: 1 n
Haematuria, Grade 3/4 [1, 4]: 0 n
Hypocalcaemia, Grade 1 [1, 4]: 2 n
Hypocalcaemia, Grade 2 [1, 4]: 0 n
Hypocalcaemia, Grade 3/4 [1, 4]: 0 n
Hypokalaemia, Grade 1 [1, 4]: 2 n
Hypokalaemia, Grade 2 [1, 4]: 0 n
Hypokalaemia, Grade 3/4 [1, 4]: 0 n
Myalgia, Grade 1 [1, 4]: 1 n
Myalgia, Grade 2 [1, 4]: 0 n
Myalgia, Grade 3/4 [1, 4]: 1 n
Nausea, Grade 1 [1, 4]: 2 n
Nausea, Grade 2 [1, 4]: 0 n
Nausea, Grade 3/4 [1, 4]: 0 n
Palmar-plantar erythrodysaesthesia syndrome, Grade 1 [1, 4]: 2 n
Palmar-plantar erythrodysaesthesia syndrome, Grade 2 [1, 4]: 0 n
Palmar-plantar erythrodysaesthesia syndrome, Grade 3/4 [1, 4]: 0 n
Pyrexia, Grade 1 [1, 4]: 1 n
Pyrexia, Grade 2 [1, 4]: 1 n
Pyrexia, Grade 3/4 [1, 4]: 1 n
dose-limiting toxicities ([1]; study M05-756): fatigue is dose-limiting
reversibility of toxicities ([1]; study M05-756): treatable, or reversible with ABT-869 interruption
change in tumor size ([2]; NSCLC, CRC, neuroendocrine tumor, HCC, RCC soft tissue sarcoma and ovarian carcinoma): Reductions in tumor size observed
NSCLC patients with partial remission / partial response ([2]; study M04-710): 2 (9%) patients (%)
patients with SD for >1 year with no accumulation of toxicity ([2]; study M04-710): 4 patients
patients with SD for ≧6 months ([2]; study M04-710): 6 (22%) patients (%)
patients with stable disease (SD) for ≧3 months (4 treatment periods) ([2]; study M04-710): 15 (56%) patients (%)
dose proportionality and time dependence of PK ([3]; 0.10 to 0.30 mg/kg QD, oral): dose-proportional and time-invariant; also recorded: approximately dose-proportional (0.10-0.30 mg/kg QD, oral) and time independent with minimal accumulation at day 15
dose recovered in the urine as unchanged ABT-869 ([3]; 24 hour urine, N=4): ~4%
AUC∞/D ([3]; Study Day 1, 0.10 mg/kg): 0.51 ± 0.21 µg·h/mL/mg
Cmax/D ([3]; Study Day 1, 0.10 mg/kg): 0.020 ± 0.007 µg/mL/mg
AUC∞/D ([3]; Study Day 1, 0.25 mg/kg): 0.41 ± 0.19 µg·h/mL/mg
Cmax/D ([3]; Study Day 1, 0.25 mg/kg): 0.019 ± 0.006 µg/mL/mg
AUC∞/D ([3]; Study Day 1, 0.30 mg/kg): 0.47 ± 0.19 µg·h/mL/mg
Cmax/D ([3]; Study Day 1, 0.30 mg/kg): 0.020 ± 0.008 µg/mL/mg
AUC∞/D [3, 5]: 0.41 ± 0.22 µg·h/mL/mg
Cmax/D [3, 5]: 0.021 ± 0.012 µg/mL/mg
AUC0-24/D ([3]; Study Day 15, 0.10 mg/kg): 0.35 ± 0.15 µg·h/mL/mg
Cmax/D ([3]; Study Day 15, 0.10 mg/kg): 0.024 ± 0.008 µg/mL/mg
AUC0-24/D ([3]; Study Day 15, 0.25 mg/kg): 0.30 ± 0.08 µg·h/mL/mg
Cmax/D ([3]; Study Day 15, 0.25 mg/kg): 0.022 ± 0.006 µg/mL/mg
AUC0-24/D ([3]; Study Day 15, 0.30 mg/kg): 0.30 ± 0.07 µg·h/mL/mg
Cmax/D ([3]; Study Day 15, 0.30 mg/kg): 0.022 ± 0.008 µg/mL/mg
AUC0-24/D [3, 6]: 0.35 ± 0.20 µg·h/mL/mg
Cmax/D [3, 6]: 0.026 ± 0.019 µg/mL/mg
Cmax [3, 7]: 140 ± 50 ng/mL
Tmax [3, 7]: 3.7 ± 1.5 h
AUC(0-t) [3, 7]: 2100 ± 900 ng·h/mL
AUC(0-inf) [3, 8]: 3100 ± 1400 ng·h/mL
Cmax [3, 8]: 120 ± 50 ng/mL
Tmax [3, 8]: 3.5 ± 1.5 h
clearance [3, 8]: 38.3 mL/min
half-life [3, 8]: 19 ± 5.6 h
Cmax [3, 9]: 260 ± 90 ng/mL
Tmax [3, 9]: 2.7 ± 0.8 h
Cmax [3, 10]: 310 ± 120 ng/mL
Tmax [3, 10]: 3.5 ± 1 h
Cmax [3, 11]: 390 ± 170 ng/mL
Tmax [3, 11]: 3.3 ± 0.6 h
AUC(0-t) [3, 11]: 5300 ± 1500 ng·h/mL
AUC(0-inf) [3, 12]: 7900 ± 2000 ng·h/mL
Cmax [3, 12]: 340 ± 90 ng/mL
Tmax [3, 12]: 2 h
clearance [3, 12]: 40 mL/min
half-life [3, 12]: 22 ± 2.4 h
Cmax [3, 13]: 210 ± 120 ng/mL
Tmax [3, 13]: 3.3 ± 1.5 h
Cmax [3, 14]: 220 ± 170 ng/mL
Tmax [3, 14]: 3 h
AUC(0-inf) ([3]; oral, Study Day 1, 0.25 mg/kg): 5800 ± 2900 ng·h/mL
clearance ([3]; oral, Study Day 1, 0.25 mg/kg): 50 mL/min
half-life ([3]; oral, Study Day 1, 0.25 mg/kg): 18.9 ± 6.2 h
AUC(0-inf) [3, 15]: 4100 ± 2200 ng·h/mL
clearance [3, 15]: 50 mL/min
half-life [3, 15]: 14.4 ± 4.6 h
AUC(0-t) ([3]; oral, Study Day 15, 0.25 mg/kg): 4300 ± 2100 ng·h/mL
AUC(0-t) ([3]; oral, Study Day 15, 10 mg (~0.20 mg/kg)): 3000 ± 1500 ng·h/mL
